Experimental data reported in article PMC6687188, “Novel lactate dehydrogenase inhibitors with in vivo efficacy against Cryptosporidium parvum” (PLoS Pathogens, 2019).

Molecular target: recombinant CpLDH protein (Cryptosporidium parvum, UniProt Q9GT92, F198L/K295E/R251K)

Structure (SMILES)	MEAN CpLDH INHIBITION (%)
C[C@]12CC[C@H](O)C[C@H]1CC[C@@H]1[C@@H]2CC[C@]2(C)[C@@H](C3=CC(=O)OC3)CC[C@]12O [NSC407806]	-16.59
O=C1Oc2ccccc2C1C/C(=N\Nc1ccccc1)c1ccccc1O (centres unmarked) [NSC647613]	-29.39
O=C1C=Cc2ncccc2C1=O [NSC400944]	-2.52
COc1ccccc1/C=C1\Sc2scc(-c3cccc([N+](=O)[O-])c3)[n+]2C1=O.[Cl-] [NSC657446]	-8.01
N.N.[Cl][Pt][Cl] [NSC119875]	-45.38
CCOc1ccccc1NC(=O)CC1Sc2ccccc2NC1=O (centres unmarked) [NSC637680]	-16.33
COc1cc(C[C@H]2c3cc(OC)c(OC)cc3CCN2C)c(Oc2cc3c(cc2OC)-c2c(OC)c(OC)cc4c2[C@H](C3)N(C)CC4)cc1OC [NSC68075]	-148.49
CN(C)CCOC1(Cc2ccc(Cl)cc2Cl)CCC(C(C)(C)C)CC1.Cl (centres unmarked) [NSC670224]	-73.95
Cc1ccc(NC(=O)c2cc3ccccc3c(N=Nc3ccccc3O)c2O)c(C)c1 [NSC374898]	-39.33
C[CH2][Ge]1([CH2]C)[CH2]CC2(CCN(CCCN(C)C)C2)C[CH2]1 [NSC192965]	-81.94
CC1(O)C=CC(=O)C=C1 [NSC295156]	-1.00
CCS(=O)(=O)O.CN(C)C(=O)c1cccc(COc2ccc(N3C(N)=NC(N)=NC3(C)C)cc2Cl)c1 [NSC139105]	-28.54
Cl.Nc1ccc(OCCCc2c(-c3ccccc3)nc(N)[nH]c2=O)cc1 [NSC100856]	-59.57
CCCCCCCCCCCCCCCC[N+](C)(C)CCl.[Cl-] [NSC672904]	-0.06
CC(C)(C)c1ccc(O)c(CN(Cc2cc(C(C)(C)C)ccc2O)C2CCCCC2)c1 [NSC48151]	-66.17
Cc1cc(N(CC(C)Br)CC(C)Br)ccc1N=Nc1ccccc1C(=O)O (centres unmarked) [NSC240419]	-69.26
COc1cc2c3c(n(C)c(=O)c2cc1OC)-c1cc2c(cc1C3=O)OCO2 [NSC314622]	-4.47
Cc1c(N=Cc2ccc(N(CCC#N)CCC#N)cc2)c(=O)n(-c2ccccc2)n1C [NSC620280]	-51.47
Cc1cc2c(cc1C)[n+](=O)c(C(=O)/C=C/c1ccccc1[N+](=O)[O-])c(C)n2[O-] [NSC621486]	-0.42
O=c1cccccc1O [NSC89303]	-7.26
O=C1/C(=C/c2ccc([N+](=O)[O-])cc2)Sc2scc(-c3cccc([N+](=O)[O-])c3)[n+]21.[Cl-] [NSC657598]	-68.44
COc1ccc2cc(CN3CCC(C4CCN(Cc5ccc6cc(OC)ccc6c5)CC4)CC3)ccc2c1.Cl [NSC683792]	-73.55
Cc1cccc(Cl)c1NC(=O)/C=C/c1ccccc1 [NSC191393]	-10.83
Cc1ccc(NC(=O)/C=C/c2ccccc2)c(C)c1 [NSC191389]	-64.07

Structure (SMILES)	MEAN CpLDH INHIBITION (%)
O=C(Nc1ccc2c(c1)oc(=O)c1ccccc12)C(Cl)Cl [NSC65937]	-25.00
CCN1C=C/C(=C\C=C\c2cc[n+](CC)c3ccccc23)c2ccccc21.[I-] [NSC34391]	-25.08
O=C(CC(=O)c1ccccc1NC1=Cc2ccccc2C(=O)C1=O)C(=O)NC1=C(Cl)C(=O)c2ccccc2C1=O [NSC641245]	-19.61
c1coc(CNc2ncnc3[nH]ncc23)c1 [NSC1620]	-4.87
CC(C)=CCC(OC(=O)C=C(C)C)C1=CC(=O)c2c(O)ccc(O)c2C1=O (centres unmarked) [NSC140377]	-8.72
Cc1ccc(CC2(OCCN(C)C)CCC(C(C)(C)C)CC2)cc1.O=C(O)/C=C/C(=O)O (centres unmarked) [NSC670229]	-52.64
O=C(O)c1ccccc1-c1ccccc1C(=O)Nc1ccc2c(c1)Cc1ccccc1-2 [NSC67690]	-56.08
CCCCCC/C=C\CCCCCCCCCc1cccc(OC)c1O [NSC617540]	-6.79
CON(C)C(=O)C1CCCO1 (centres unmarked) [NSC695218]	-28.71
CC1(C)N=C(N)N=C(N)N1c1ccc(OCCCOc2ccccc2)c(Cl)c1.CCS(=O)(=O)O [NSC133071]	-57.79
Cc1ccc2[c](c1)[Sn]([c]1ccccc1)([c]1ccccc1)[c]1cc(C)ccc1N2C [NSC118030]	-56.74
COc1cc([C@@H]2c3cc4c(c(O)c3C[C@H]3COC(=O)[C@@H]32)OCO4)cc(OC)c1O [NSC24817]	-20.22
CCC(=O)OC1CCn2c1nc1c2C(=O)C(C)=C(N2CC2)C1=O (centres unmarked) [NSC651079]	-28.42
COc1ccc(NC(=O)CC(=O)N2N=C(C)C(N=Nc3ccc(S(=O)(=O)c4ccc(N=NC5C(=O)N(C(=O)CC(=O)Nc6ccc(OC)cc6)N=C5C)cc4)cc3)C2=O)cc1 (centres unmarked) [NSC677392]	-119.10
Cc1ccccc1NC(=O)C(=O)C(C#N)c1ccccc1C (centres unmarked) [NSC636132]	-58.66
O=C1Cc2c(-c3ccccc3)cc(-c3cccc(Cl)c3)nc2-c2ccccc2N1 [NSC684480]	-22.58
CC1Oc2cc3c(-c4c(O)cc(O)c5c(O)c6c(cc45)OC(C)C(C)C6=O)c(O)cc(O)c3c(O)c2C(=O)C1C (centres unmarked) [NSC345647]	-176.19
Nc1nc(=S)c2ncn(C3CC(O)C(CO)O3)c2[nH]1 (centres unmarked) [NSC71851]	-30.23
CCC(C#N)(c1ccccc1)N(CCc1ccccc1)C(=O)c1ccccc1 (centres unmarked) [NSC681741]	-7.66
CC(C)(C)c1ccc(OC2CCO2)cc1 (centres unmarked) [NSC635975]	-52.75
CC[C@@]12CCCN3CC[C@]4(c5cccc(OC)c5N(C(C)=O)[C@@H]4CC1)[C@H]32 [NSC61811]	-26.07
O=C1C=C(Nc2ccccc2C(=O)CC(=O)C(=O)Nc2ccc(Cl)cc2)c2ccccc2C1=O [NSC641253]	-12.80
O=C1/C(=C\c2cccs2)Oc2ccccc21 [NSC56544]	-23.78
CC1=NC(C(C)C)C(=O)O1 (centres unmarked) [NSC635968]	-7.14

Structure (SMILES)	MEAN CpLDH INHIBITION (%)
CN(C)CCCN1c2ccccc2Sc2ccc3ccccc3c21 [NSC18891]	-7.99
COC(=O)[C@@]12OC[C@]34[C@H]([C@@H](O)[C@@H]1O)[C@@]1(C)CC(=O)C(O)=C(C)[C@@H]1C[C@H]3OC(=O)[C@H](OC(=O)C=C(C)C)[C@@H]24 [NSC172924]	-39.50
COc1ccc2nc(NC(=O)C(=O)CC(=O)c3ccc(Cl)cc3)sc2c1 [NSC623059]	-31.35
CCS(=O)(=O)Nc1ccc(Nc2c3ccccc3nc3ccccc23)c(OC)c1.CS(=O)(=O)O [NSC243928]	-32.64
CC1=Nc2ccccc2/C1=C\c1c(C)[nH]c2ccccc12 [NSC76747]	-6.97
O=C1C(=O)c2ccccc2C(O)=C1CC=C(Cl)Cl [NSC126771]	-15.17
[N-]=[N+]=NC1=NNC2(C(=O)N1)c1ccccc1-c1ccccc12 [NSC666168]	-17.65
Cc1c(Cl)cccc1NC(=O)CC1Sc2ccccc2NC1=O (centres unmarked) [NSC634396]	-17.78
CC(=O)OC1CC(n2cc(F)c(=O)[nH]c2=O)OC1CO (centres unmarked) [NSC407335]	-11.80
CCn1c(O)c(C=Nc2ccccc2)s/c1=N/Nc1ncc(CC(=O)Nc2ccccc2C)s1 [NSC658350]	-19.59
C=C(C)[C@@H]1CCc2c(O)c(O)c(=O)cc(C)c2C1 [NSC310618]	-54.97
O=[N+]([O-])c1cc(C(F)(F)F)cc([N+](=O)[O-])c1CCl [NSC622627]	-26.97
OCCNCCN1CCN(CCCN2c3ccccc3Sc3ccc(C(F)(F)F)cc32)CC1 [NSC169676]	-69.84
C[C@H](CN(C)C)C(=O)c1ccccc1C(=O)O [NSC22992]	-3.61
O=[Se]([O-])[O-].[Na+].[Na+] [NSC347466]	-3.84
CC1(C)CCC[C@]2(C)C3=C(CC[C@@H]12)C(=O)OC3 [NSC375294]	-39.63
CO[C@H]1[C@@H](O)[C@@H](C)O[C@H](O[C@H]2[C@H](Oc3cccc4c(O)c5c(=O)oc6ccc(C)c7c(=O)oc(c34)c5c67)O[C@H](C)[C@H](O)[C@@H]2O)[C@@H]1O [NSC5159]	-38.07
O=C(Nc1cccc(C(F)(F)F)c1)C(=O)C(C(=O)c1ccc(Cl)c(Cl)c1)C1OC(=O)c2ccccc21 (centres unmarked) [NSC644794]	-17.50
COc1nc(N)nc2nc[nH]c12 [NSC37364]	-36.91
COc1cc2c3c(c1OC)-c1cc4c(cc1CC3(C#N)N(C(=O)c1ccccc1)CC2)OCO4 (centres unmarked) [NSC627666]	-0.33
O=S1(=O)OCCOS(=O)(=O)C1Cc1ccccc1 [NSC634863]	-18.12
C[C@]12C=CC(=O)C=C1[C@@H](F)C[C@H]1[C@@H]3CC[C@](O)(C(=O)CO)[C@@]3(C)C[C@H](O)[C@@]12F [NSC77021]	-2.42
COc1cc2c(c(OC)c1OC)-c1ccc(OC)c(=O)cc1[C@@H](NC(=O)c1ccccc1)CC2 [NSC33410]	-43.24
